From US12083124B2 (Incyte Corporation, priority 2019, dated 2024)
Where two headings read alike, the source gives them in different places.

Tests used:
[1] = molecular target: wild-type un-phosphorylated FGFR3 (Homo sapiens, UniProt P22607); test: FGFR Enzymatic Assay (FRET peptide phosphorylation), FGFR3
[2] = molecular target: wild-type un-phosphorylated FGFR2 (Homo sapiens, UniProt P21802); test: FGFR Enzymatic Assay (FRET peptide phosphorylation), FGFR2
[3] = molecular target: wild-type un-phosphorylated FGFR1 (Homo sapiens, UniProt P11362); test: FGFR Enzymatic Assay (FRET peptide phosphorylation), FGFR1; details: pre-incubated for 4 hours
wild-type un-phosphorylated FGFR1, sequence (P11362 22-822): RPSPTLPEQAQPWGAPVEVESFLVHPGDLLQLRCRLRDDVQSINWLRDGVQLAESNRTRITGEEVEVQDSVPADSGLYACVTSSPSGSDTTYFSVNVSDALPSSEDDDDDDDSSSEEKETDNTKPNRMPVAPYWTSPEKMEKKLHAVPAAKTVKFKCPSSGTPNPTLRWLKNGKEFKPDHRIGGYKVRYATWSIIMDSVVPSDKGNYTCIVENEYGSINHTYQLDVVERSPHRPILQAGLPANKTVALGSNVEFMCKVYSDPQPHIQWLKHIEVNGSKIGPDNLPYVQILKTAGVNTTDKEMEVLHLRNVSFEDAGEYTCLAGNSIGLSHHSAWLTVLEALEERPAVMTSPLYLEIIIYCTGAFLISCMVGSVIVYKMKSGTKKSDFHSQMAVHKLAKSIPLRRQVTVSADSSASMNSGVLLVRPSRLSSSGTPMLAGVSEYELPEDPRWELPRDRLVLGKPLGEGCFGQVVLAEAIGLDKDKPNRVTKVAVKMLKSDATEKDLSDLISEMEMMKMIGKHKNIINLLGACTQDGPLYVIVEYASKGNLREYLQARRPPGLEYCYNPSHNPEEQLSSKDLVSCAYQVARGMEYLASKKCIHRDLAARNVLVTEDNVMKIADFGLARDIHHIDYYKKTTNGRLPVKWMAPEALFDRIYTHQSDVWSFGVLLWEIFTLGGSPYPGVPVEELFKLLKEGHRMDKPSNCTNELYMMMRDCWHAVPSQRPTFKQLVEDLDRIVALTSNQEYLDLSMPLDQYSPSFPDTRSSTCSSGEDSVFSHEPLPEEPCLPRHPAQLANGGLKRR
Experimental: The inhibitor potency of the exemplified compounds was determined in an enzyme discontinuous assay that measures peptide phosphorylation using FRET measurements to detect product formation. Inhibitors were serially diluted in DMSO and a volume of 0.2 μL was transferred to the wells of a 384-well plate. […] Appropriate controls (enzyme blank and enzyme with no inhibitor) were included on the plate. […] The 10 μL/well reaction concentration of the peptide substrate was 500 nM whereas the ATP concentration was maintained near or below the ATP Km. The ATP Km values were pre-determined in a separate series of experiments. The reaction plate was incubated at 25° C. for 1 hr and the reactions were ended with the addition of 5 μL/well of quench solution (50 mM Tris, 150 mM NaCl, 0.5 mg/mL BSA, pH 7.8; 45 mM EDTA, 600 nM staurosporin, with Perkin Elmer Lance Reagents at 3.75 nM Eu-antibody PY20 and 180 nM APC-Streptavidin). The plate was allowed to equilibrate for ˜10 minutes at ambient temperature before scanning on a PheraStar plate reader (BMG Labtech) instrument.
Either GraphPad prism or XLfit was used to analyze the data. The IC50 values were derived by fitting the data to a four parameter logistic equation producing a sigmoidal dose-response curve with a variable Hill coefficient. Prism equation: Y=Bottom+(Top-Bottom)/(1+10^((Log IC50-X)*Hill slope)); XLfit equation: Y=(A+((B−A)/(1+((X/C)^D)))) where X is the logarithm of inhibitor concentration and Y is the response.
GraphPad prism3 was used to analyze the data. The IC50 values were derived by fitting the data to the equation for a sigmoidal dose-response with a variable slope. Y=Bottom+(Top-Bottom)/(1+10^((Log IC50-X)*Hill Slope)) where X is the logarithm of concentration and Y is the response.
The data in Table 1 was measured in wild-type un-phosphorylated FGFR1, FGFR2, FGFR3, and FGFR4 proteins.

[4] = FGFR1, wild-type un-phosphorylated FGFR1
[5] = read-out: FGFR1, wild-type un-phosphorylated FGFR1

wild-type un-phosphorylated FGFR3, sequence (P22607 23-806): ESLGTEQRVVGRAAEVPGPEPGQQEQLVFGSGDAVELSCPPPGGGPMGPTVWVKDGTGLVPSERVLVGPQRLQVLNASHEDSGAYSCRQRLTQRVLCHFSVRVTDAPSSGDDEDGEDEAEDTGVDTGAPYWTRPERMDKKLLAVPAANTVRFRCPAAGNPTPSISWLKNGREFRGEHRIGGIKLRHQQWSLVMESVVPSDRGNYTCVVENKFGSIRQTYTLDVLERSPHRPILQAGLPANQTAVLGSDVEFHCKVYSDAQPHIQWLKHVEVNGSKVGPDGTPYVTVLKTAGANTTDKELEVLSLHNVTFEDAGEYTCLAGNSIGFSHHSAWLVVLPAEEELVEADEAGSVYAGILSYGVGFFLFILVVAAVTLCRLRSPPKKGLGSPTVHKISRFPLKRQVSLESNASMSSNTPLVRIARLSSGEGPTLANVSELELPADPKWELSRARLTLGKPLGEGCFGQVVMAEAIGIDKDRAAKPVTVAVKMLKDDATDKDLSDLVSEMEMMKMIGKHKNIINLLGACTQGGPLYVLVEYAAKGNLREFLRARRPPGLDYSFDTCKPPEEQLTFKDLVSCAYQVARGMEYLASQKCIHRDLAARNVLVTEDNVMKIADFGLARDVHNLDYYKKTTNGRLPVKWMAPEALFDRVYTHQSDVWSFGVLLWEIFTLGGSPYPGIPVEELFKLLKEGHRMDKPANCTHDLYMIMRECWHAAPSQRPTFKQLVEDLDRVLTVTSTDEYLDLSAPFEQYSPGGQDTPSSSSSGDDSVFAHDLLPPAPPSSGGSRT
wild-type un-phosphorylated FGFR2, sequence (P21802 22-821): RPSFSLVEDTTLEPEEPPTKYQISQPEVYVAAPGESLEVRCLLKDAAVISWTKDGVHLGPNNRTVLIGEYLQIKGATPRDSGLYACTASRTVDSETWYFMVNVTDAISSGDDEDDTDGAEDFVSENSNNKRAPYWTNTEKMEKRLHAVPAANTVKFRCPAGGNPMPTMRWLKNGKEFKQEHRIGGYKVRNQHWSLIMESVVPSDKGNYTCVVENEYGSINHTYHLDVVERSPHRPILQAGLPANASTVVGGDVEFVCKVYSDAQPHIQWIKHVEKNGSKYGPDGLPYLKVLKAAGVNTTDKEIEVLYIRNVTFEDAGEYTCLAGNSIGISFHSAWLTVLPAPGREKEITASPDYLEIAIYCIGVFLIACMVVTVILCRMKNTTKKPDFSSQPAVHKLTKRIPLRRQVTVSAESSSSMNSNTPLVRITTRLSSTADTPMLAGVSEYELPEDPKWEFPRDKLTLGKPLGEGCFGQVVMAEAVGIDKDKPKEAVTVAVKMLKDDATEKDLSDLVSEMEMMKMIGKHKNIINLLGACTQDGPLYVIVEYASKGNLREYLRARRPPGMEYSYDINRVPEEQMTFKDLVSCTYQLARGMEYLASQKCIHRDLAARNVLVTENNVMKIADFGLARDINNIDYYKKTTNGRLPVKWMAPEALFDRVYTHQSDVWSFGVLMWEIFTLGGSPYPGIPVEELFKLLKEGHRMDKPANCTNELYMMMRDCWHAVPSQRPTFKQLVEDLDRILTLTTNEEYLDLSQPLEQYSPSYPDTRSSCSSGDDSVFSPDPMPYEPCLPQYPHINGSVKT

| IC50 [1] [µM] | IC50 [2] [µM] | IC50 [3, 4] [µM] | IC50 ([1]; read-out: FGFR3, wild-type un-phosphorylated FGFR3, pre-incubated for 4 hours) [µM] | IC50 ([2]; read-out: FGFR2, wild-type un-phosphorylated FGFR2, pre-incubated for 4 hours) [µM] | IC50 [3, 5] [µM] | SMILES |
| --- | --- | --- | --- | --- | --- | --- |
| < 0.006 | < 0.006 | 0.04 to 0.1 |  |  |  | COc1cc2[nH]nc(-c3cnn(C)c3)c2nc1-c1cccc2c1CCC2CO (single isomer, unassigned) [Example 11, (4-(6-Methoxy-3-(1-methyl-1H-pyrazol-4-yl)-1H-pyrazolo[4,3-b]pyridin-5-yl)-2,3-dihydro-1H-inden-1-yl)methanol] |
|  |  |  | < 0.006 | < 0.006 | 0.04 to 0.1 | COc1cc2[nH]nc(-c3cnn(C)c3)c2nc1-c1cccc2c1CCC2CO (single isomer, unassigned) [Example 12, (4-(6-Methoxy-3-(1-methyl-1H-pyrazol-4-yl)-1H-pyrazolo[4,3-b]pyridin-5-yl)-2,3-dihydro-1H-inden-1-yl)methanol] |
| < 0.006 |  | 0.04 to 0.1 |  |  |  | COc1cc2[nH]nc(-c3cnn([C@H]4CC[C@@H](NC(C)=O)CC4)c3)c2nc1-c1cccc2c1CCC2 [Example 53, N-((cis)-4-(4-(5-(2,3-Dihydro-1H-inden-4-yl)-6-methoxy-1H-pyrazolo[4,3-b]pyridin-3-yl)-1H-pyrazol-1-yl)cyclohexyl)acetamide] |
| < 0.006 |  | 0.04 to 0.1 |  |  |  | COc1cc2[nH]nc(-c3ccc(N4CCN(C)CC4C)nc3)c2nc1-c1cccc2c1CCC2 (stereo not drawn) [Example 54, 5-(2,3-Dihydro-1H-inden-4-yl)-3-(6-(2,4-dimethylpiperazin-1-yl)pyridin-3-yl)-6-methoxy-1H-pyrazolo[4,3-b]pyridine] |
| < 0.006 |  | > 0.1 |  |  |  | COc1cc2[nH]nc(-c3ccc(N4CCN(C(C)=O)CC4)nc3)c2nc1-c1cccc(CC#N)c1C [Example 55, 2-(3-(3-(6-(4-Acetylpiperazin-1-yl)pyridin-3-yl)-6-methoxy-1H-pyrazolo[4,3-b]pyridin-5-yl)-2-methylphenyl)acetonitrile] |
| < 0.006 |  |  |  |  | 0.006 to 0.04 | COc1cc2[nH]nc(-c3ccc(N4CCN(C(C)=O)CC4)nc3)c2nc1-c1cccc2c1CCC2 [Example 64, 1-(4-(5-(5-(2,3-Dihydro-1H-inden-4-yl)-6-methoxy-1H-pyrazolo[4,3-b]pyridin-3-yl)pyridin-2-yl)piperazin-1-yl)ethan-1-one] |
| < 0.006 |  | > 0.1 |  |  |  | COc1cc2[nH]nc(-c3cnn(C4CC4)c3)c2nc1-c1cccc(C)c1C [Example 67, 3-(1-Cyclopropyl-1H-pyrazol-4-yl)-5-(2,3-dimethylphenyl)-6-methoxy-1H-pyrazolo[4,3-b]pyridine] |
| < 0.006 |  | > 0.1 |  |  |  | COc1cc2[nH]nc(-c3cnn(C4CCN(C(C)=O)CC4)c3)c2nc1-c1cccc(C)c1C [Example 69, 1-(4-(4-(5-(2,3-Dimethylphenyl)-6-methoxy-1H-pyrazolo[4,3-b]pyridin-3-yl)-1H-pyrazol-1-yl)piperidin-1-yl)ethan-1-one] |
| < 0.006 |  | > 0.1 |  |  |  | COC(=O)N1CCC(n2cc(-c3n[nH]c4cc(OC)c(-c5cccc(C)c5C)nc34)cn2)CC1 [Example 70, Methyl 4-(4-(5-(2,3-dimethylphenyl)-6-methoxy-1H-pyrazolo[4,3-b]pyridin-3-yl)-1H-pyrazol-1-yl)piperidine-1-carboxylate] |
| < 0.006 |  | > 0.1 |  |  |  | COC(=O)N1CC(n2cc(-c3n[nH]c4cc(OC)c(-c5cccc(C)c5C)nc34)cn2)C1 [Example 71, Methyl 3-(4-(5-(2,3-dimethylphenyl)-6-methoxy-1H-pyrazolo[4,3-b]pyridin-3-yl)-1H-pyrazol-1-yl)azetidine-1-carboxylate] |
| < 0.006 |  | 0.04 to 0.1 |  |  |  | COc1cc2[nH]nc(-c3ccc(N4CC[C@H](N(C)C(=O)CO)C4)nc3)c2nc1-c1cccc(C)c1C [Example 88, (S)-N-(1-(5-(5-(2,3-Dimethylphenyl)-6-methoxy-1H-pyrazolo[4,3-b]pyridin-3-yl)pyridin-2-yl)pyrrolidin-3-yl)-2-hydroxy-N-methylacetamide] |
